# Results as given in patent US11028079B2 (ConverGene LLC, priority 2015, dated 2021).
# Molecular target: T1, BRD4 bromodomains (Homo sapiens, UniProt O60885)
# T1 construct: fused on or other part: T7 phage capsid protein (phage-display fusion; the phage DNA is read out by qPCR)
# Assay: BROMOscan bromodomain competition binding assay (DiscoveRx)
# Conditions: Kd from 11 compound concentrations ranging from 0 to 10 μM, read-out: BROMOscan Relative Activity
# Method in brief: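 Compounds in 0.1% DMSO/0.9% MEG competed with a solid-phase acetylated peptide for T7 phage-fused BRD4 bromodomains, with the retained bromodomain measured by qPCR.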
row,Structure (SMILES),Kd [µM]
1,"Cc1noc(C)c1-c1ccc2nc(C(=O)NC3CCOCC3)cc(NCc3cccc(Cl)c3)c2c1 [Example 236, 4-((3-chlorobenzyl)amino)-6-(3,5-dimethylisoxazol-4-yl)-N-(tetrahydro-2H-pyran-4-yl)quinoline-2-carboxamide]",< 0.5
2,"Cc1noc(C)c1-c1ccc2nc(C(=O)NC3CN(C)C3)nc(NCc3cncc(Cl)c3)c2c1 [Example 237, 4-(((5-chloropyridin-3-yl)methyl)amino)-6-(3,5-dimethylisoxazol-4-yl)-N-(1-methylazetidin-3-yl)quinazoline-2-carboxamide]",< 0.5
3,"Cc1nn(C)cc1CNC(=O)c1nc(NCc2cncc(Cl)c2)c2cc(-c3c(C)noc3C)ccc2n1 [Example 238, 4-(((5-chloropyridin-3-yl)methyl)amino)-N-((1,3-dimethyl-1H-pyrazol-4-yl)methyl)-6-(3,5-dimethylisoxazol-4-yl)quinazoline-2-carboxamide]",< 0.5
4,"Cc1noc(C)c1-c1ccc2nc(C(=O)NC3CCS(=O)(=O)CC3)nc(NCc3cncc(Cl)c3)c2c1 [Example 239, 4-(((5-chloropyridin-3-yl)methyl)amino)-6-(3,5-dimethylisoxazol-4-yl)-N-(1,1-dioxidotetrahydro-2H-thiopyran-4-yl)quinazoline-2-carboxamide]",< 0.5
5,"Cc1noc(C)c1-c1ccc2nc(C(=O)NCC3CN(C)C3)nc(NC3(c4cccc(Cl)c4)CC3)c2c1 [Example 240, 4-((1-(3-chlorophenyl)cyclopropyl)amino)-6-(3,5-dimethylisoxazol-4-yl)-N-((1-methylazetidin-3-yl)methyl)quinazoline-2-carboxamide]",< 0.5
6,"Cc1noc(C)c1-c1ccc2nc(N3CCS(=O)(=O)CC3)nc(NCc3cncc(Cl)c3)c2c1 [Example 241, 4-(4-(((5-chloropyridin-3-yl)methyl)amino)-6-(3,5-dimethylisoxazol-4-yl)quinazolin-2-yl)thiomorpholine 1,1-dioxide]",< 0.5
7,"Cc1noc(C)c1-c1ccc2nc(C(=O)NC3CN(C)C3)nc(NC3(c4cccc(Cl)c4)CC3)c2c1 [Example 242, 4-((1-(3-chlorophenyl)cyclopropyl)amino)-6-(3,5-dimethylisoxazol-4-yl)-N-(1-methylazetidin-3-yl)quinazoline-2-carboxamide]",< 0.5
8,"Cc1noc(C)c1-c1ccc2nc(N3CCS(=O)(=O)CC3)nc(NCc3cccc(Cl)c3)c2c1 [Example 243, 4-(4-((3-chlorobenzyl)amino)-6-(3,5-dimethylisoxazol-4-yl)quinazolin-2-yl)thiomorpholine 1,1-dioxide]",0.5 to 5
9,"Cc1noc(C)c1-c1ccc2nc(N3CCN(C(=O)N(C)C)CC3)nc(NCc3cccc(Cl)c3)c2c1 [Example 244, 4-(4-((3-chlorobenzyl)amino)-6-(3,5-dimethylisoxazol-4-yl)quinazolin-2-yl)-N,N-dimethylpiperazine-1-carboxamide]",< 0.5
10,"Cc1nn(C)cc1CNC(=O)c1nc(NC2(c3cccc(Cl)c3)CC2)c2cc(-c3c(C)noc3C)ccc2n1 [Example 245, 4-((1-(3-chlorophenyl)cyclopropyl)amino)-N-((1,3-dimethyl-1H-pyrazol-4-yl)methyl)-6-(3,5-dimethylisoxazol-4-yl)quinazoline-2-carboxamide]",< 0.5
11,"Cc1noc(C)c1-c1ccc2nc(C(=O)NC3CCS(=O)(=O)CC3)nc(NC3(c4cccc(Cl)c4)CC3)c2c1 [Example 246, 4-((1-(3-chlorophenyl)cyclopropyl)amino)-6-(3,5-dimethylisoxazol-4-yl)-N-(1,1-dioxidotetrahydro-2H-thiopyran-4-yl)quinazoline-2-carboxamide]",< 0.5
12,"Cc1noc(C)c1-c1ccc2nc(C(=O)NC3CCOCC3)nc(NC3(c4cccc(Cl)c4)CC3)c2c1 [Example 247, 4-((1-(3-chlorophenyl)cyclopropyl)amino)-6-(3,5-dimethylisoxazol-4-yl)-N-(tetrahydro-2H-pyran-4-yl)quinazoline-2-carboxamide]",< 0.5
13,"Cc1noc(C)c1-c1ccc2nc(N3CCN(C(=O)N(C)C)CC3)nc(NCc3cncc(Cl)c3)c2c1 [Example 248, 4-(4-(((5-chloropyridin-3-yl)methyl)amino)-6-(3,5-dimethylisoxazol-4-yl)quinazolin-2-yl)-N,N-dimethylpiperazine-1-carboxamide]",< 0.5
14,"Cc1cc(CNC(=O)c2nc(NCc3cccc(Cl)c3)c3cc(-c4c(C)noc4C)ccc3n2)ccn1 [Example 249, 4-((3-chlorobenzyl)amino)-6-(3,5-dimethylisoxazol-4-yl)-N-((2-methylpyridin-4-yl)methyl)quinazoline-2-carboxamide]",< 0.5
15,"Cc1noc(C)c1-c1ccc2nc(C(=O)N[C@H]3CC[C@H](O)CC3)nc(NCc3cccc(Cl)c3)c2c1 [Example 250, 4-((3-chlorobenzyl)amino)-6-(3,5-dimethylisoxazol-4-yl)-N-((trans)-4-hydroxycyclohexyl)quinazoline-2-carboxamide]",< 0.5
16,"Cc1noc(C)c1-c1ccc2nc(C(=O)NCc3nccn3C)nc(NCc3cccc(Cl)c3)c2c1 [Example 251, 4-((3-chlorobenzyl)amino)-6-(3,5-dimethylisoxazol-4-yl)-N-((1-methyl-1H-imidazol-2-yl)methyl)quinazoline-2-carboxamide]",< 0.5
17,"Cc1noc(C)c1-c1ccc2nc(C(=O)NC3CCC(F)(F)CC3)nc(NCc3cccc(Cl)c3)c2c1 [Example 252, 4-((3-chlorobenzyl)amino)-N-(4,4-difluorocyclohexyl)-6-(3,5-dimethylisoxazol-4-yl)quinazoline-2-carboxamide]",0.5 to 5
18,"Cc1noc(C)c1-c1ccc2nc(C(=O)N[C@H]3C[C@H](O)C3)nc(NCc3cccc(Cl)c3)c2c1 [Example 253, 4-((3-chlorobenzyl)amino)-6-(3,5-dimethylisoxazol-4-yl)-N-((trans)-3-hydroxycyclobutyl)quinazoline-2-carboxamide]",< 0.5
19,"Cc1noc(C)c1-c1ccc2nc(N3CCN(CCN(C)C)CC3)nc(N3CCC(C(=O)O)CC3)c2c1 [Example 254, 1-(2-(4-(2-(dimethylamino)ethyl)piperazin-1-yl)-6-(3,5-dimethylisoxazol-4-yl)quinazolin-4-yl)piperidine-4-carboxylic acid]",0.5 to 5
20,"Cc1noc(C)c1-c1ccc2nc(-c3cnn(CCO)c3)nc(N3CCC(C(=O)O)CC3)c2c1 [Example 255, 1-(6-(3,5-dimethylisoxazol-4-yl)-2-(1-(2-hydroxyethyl)-1H-pyrazol-4-yl)quinazolin-4-yl)piperidine-4-carboxylic acid]",0.5 to 5
21,"Cc1noc(C)c1-c1ccc2nc(C(=O)NCC3CC(F)(F)C3)nc(NCc3cccc(Cl)c3)c2c1 [Example 256, 4-((3-chlorobenzyl)amino)-N-((3,3-difluorocyclobutyl)methyl)-6-(3,5-dimethylisoxazol-4-yl)quinazoline-2-carboxamide]",0.5 to 5
22,"Cc1n[nH]c(C)c1CNC(=O)c1nc(NCc2cccc(Cl)c2)c2cc(-c3c(C)noc3C)ccc2n1 [Example 257, 4-((3-chlorobenzyl)amino)-N-((3,5-dimethyl-1H-pyrazol-4-yl)methyl)-6-(3,5-dimethylisoxazol-4-yl)quinazoline-2-carboxamide]",< 0.5
23,"Cc1ncsc1CNC(=O)c1nc(NCc2cccc(Cl)c2)c2cc(-c3c(C)noc3C)ccc2n1 [Example 258, 4-((3-chlorobenzyl)amino)-6-(3,5-dimethylisoxazol-4-yl)-N-((4-methylthiazol-5-yl)methyl)quinazoline-2-carboxamide]",< 0.5
